Residue numbers refer to the chain shown, from its start. Where two headings read alike, the source gives them in different places.
Columns and labels:
[1] = biological target: T1, hGAT3 wt (Homo sapiens, UniProt P48066); assay: [3H]GABA uptake inhibition at wt hGAT3 transiently expressed in tsA201 cells; type: cell-based; details: 30 nM [3H]GABA, transient expression
T1 construct: expressed in transfected cells; host or cells: tsA201 cells, transient (PolyFect), pcDNA5/FRT vector
T1 sequence (P48066 1-632): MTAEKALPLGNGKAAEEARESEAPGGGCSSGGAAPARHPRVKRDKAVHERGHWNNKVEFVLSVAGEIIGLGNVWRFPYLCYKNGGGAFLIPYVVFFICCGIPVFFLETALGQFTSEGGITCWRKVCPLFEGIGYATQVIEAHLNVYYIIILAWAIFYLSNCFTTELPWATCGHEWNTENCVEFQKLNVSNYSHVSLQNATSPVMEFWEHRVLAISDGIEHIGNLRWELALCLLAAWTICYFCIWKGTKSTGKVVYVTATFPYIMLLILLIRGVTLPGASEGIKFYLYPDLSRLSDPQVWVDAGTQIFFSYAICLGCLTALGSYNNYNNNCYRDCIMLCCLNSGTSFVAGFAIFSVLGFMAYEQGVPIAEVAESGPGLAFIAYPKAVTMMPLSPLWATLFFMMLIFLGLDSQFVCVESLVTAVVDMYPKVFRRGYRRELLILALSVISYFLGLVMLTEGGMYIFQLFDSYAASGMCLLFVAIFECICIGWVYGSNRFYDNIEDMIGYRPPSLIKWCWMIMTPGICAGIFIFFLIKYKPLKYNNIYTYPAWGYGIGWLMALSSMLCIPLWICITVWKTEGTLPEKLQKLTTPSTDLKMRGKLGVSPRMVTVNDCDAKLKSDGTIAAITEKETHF

[2] = biological target: T2, hBGT1 E52Y (Homo sapiens, UniProt P48065, E52Y); assay: cell-based; details: 30 nM [3H]GABA, tsA201 cells, transient expression
T2 sequence (P48065 1-614 E52Y): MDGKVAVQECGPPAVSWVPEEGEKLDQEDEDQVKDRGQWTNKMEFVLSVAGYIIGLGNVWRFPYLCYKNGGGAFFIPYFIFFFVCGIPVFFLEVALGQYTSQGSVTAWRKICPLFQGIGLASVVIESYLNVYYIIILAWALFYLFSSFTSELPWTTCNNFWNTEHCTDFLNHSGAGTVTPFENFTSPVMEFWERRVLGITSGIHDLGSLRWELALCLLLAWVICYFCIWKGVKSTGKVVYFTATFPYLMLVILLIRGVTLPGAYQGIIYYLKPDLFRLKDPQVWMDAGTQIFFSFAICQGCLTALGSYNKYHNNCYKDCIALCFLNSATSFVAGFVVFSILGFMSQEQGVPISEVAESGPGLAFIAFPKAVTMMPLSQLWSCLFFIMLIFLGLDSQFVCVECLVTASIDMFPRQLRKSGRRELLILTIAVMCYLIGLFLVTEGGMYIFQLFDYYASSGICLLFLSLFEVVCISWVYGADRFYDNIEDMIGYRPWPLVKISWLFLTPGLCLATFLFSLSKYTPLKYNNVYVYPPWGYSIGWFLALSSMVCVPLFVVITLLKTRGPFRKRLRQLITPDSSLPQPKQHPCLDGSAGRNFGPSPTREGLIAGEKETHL

[3] = biological target: T3, hGAT1 (Homo sapiens, UniProt P30531); assay: [3H]GABA uptake inhibition at hGAT1 stably expressed in CHO Flp-In cells; type: cell-based; details: 30 nM [3H]GABA, 3 min, CHO Flp-In cells stably expressing hGAT1; read-out: IC50 hGAT1
T3 construct: expressed in transfected cells
Procedure: CHO Flp-In and tsA201 cells were cultured at 37 °C in a humidified atmosphere of […] and 5% CO2. As previously described[38],[63], CHO Flp-In cells stably expressing the hGATs were cultured in Ham’s F12 Nutrient Mix supplemented with 10% FBS, 1% P/S and plasmocin (5 µg/mL) under the selection pressure of hygromycin B (200 µg/mL). DMEM with GlutaMAX-I supplemented with 10% FBS and 1% P/S was used as growth medium for the tsA201 cells, which were transfected with DNA constructs using PolyFect according to the manufacturer’s specifications (Qiagen, West Sussex, UK), but with half of the recommended reagent volumes.
Uptake assays were performed in PDL-coated white 96-well polystyrene cell culture microplates (PerkinElmer, Boston, MA, USA) as previously described[38],[63]. […] Assay buffer was HBSS supplemented with 20 mM HEPES, 1 mM CaCl2 and 1 mM MgCl2, pH 7.4. […] After termination, scintillation liquid (MicroScint-20, PerkinElmer) was added and the radioactivity measured in a TopCount NXT Microplate Scintillation Counter (PerkinElmer).
Data analysis and statistical evaluation were performed in GraphPad Prism 7.02 (GraphPad Software, San Diego, CA, USA). Concentration-uptake inhibition curves, generated from the radioligand-based uptake assays, were fitted by non-linear regression, using the equation for sigmoidal concentration–response with variable slope: Y = Bottom + (Top–Bottom)/(1 + 10^((logIC50 − X) × HillSlope)), where Y is the response, X is the logarithm of the concentration, Top and Bottom are the plateaus in same units as Y, logIC50 is the concentration giving a response halfway between Bottom and Top, and the HillSlope is the steepness of the curve. For the substrate concentration–response curves generated from the FMP assay, the same equation was used but with logEC50 instead for logIC50. Unless otherwise stated, data are presented as means ± S.E.M. of at least three independent pooled experiments performed in triplicates.

[4] = biological target: T4, hBGT1 E52A (Homo sapiens, UniProt P48065, E52A); assay: cell-based; details: 30 nM [3H]GABA, tsA201 cells, transient expression
T4 sequence (P48065 1-614 E52A): T2 sequence (P48065 1-614 E52Y) with Y52A

[5] = read-out: pIC50 ± S.E.M. GAT3 wt (converted)

T3 sequence (P30531 whole entry): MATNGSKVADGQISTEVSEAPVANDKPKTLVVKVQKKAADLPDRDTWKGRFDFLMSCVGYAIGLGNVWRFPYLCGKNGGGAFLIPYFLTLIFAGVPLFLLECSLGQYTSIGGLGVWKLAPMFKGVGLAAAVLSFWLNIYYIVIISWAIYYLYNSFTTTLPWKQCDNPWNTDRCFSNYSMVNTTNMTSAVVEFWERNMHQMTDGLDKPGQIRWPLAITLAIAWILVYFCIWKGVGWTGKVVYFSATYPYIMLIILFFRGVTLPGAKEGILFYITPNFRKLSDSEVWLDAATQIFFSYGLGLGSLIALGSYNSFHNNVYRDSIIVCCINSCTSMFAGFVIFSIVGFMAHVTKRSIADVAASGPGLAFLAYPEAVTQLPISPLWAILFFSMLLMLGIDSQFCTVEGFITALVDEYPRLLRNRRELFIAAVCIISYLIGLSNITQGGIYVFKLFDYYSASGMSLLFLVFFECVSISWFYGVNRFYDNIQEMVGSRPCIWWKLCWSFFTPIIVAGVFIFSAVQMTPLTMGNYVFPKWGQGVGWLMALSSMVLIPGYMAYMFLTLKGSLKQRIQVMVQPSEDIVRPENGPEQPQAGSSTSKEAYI

C[C@@H]1N=C(N)NC[C@@H]1C(=O)O (single isomer, unassigned) [l-15a]
IC50 ([1]; read-out: IC50 GAT3 wt): > 1000 µM
IC50 ([2]; IC50 BGT1 E52Y): > 1000 µM
IC50 [3]: > 1000 µM
IC50 ([4]; pIC50 ± S.E.M. BGT1 E52A): 37.2 µM

NC1=NCC(C(=O)O)CN1 (stereo not shown) [ATPCA, 2-amino-1,4,5,6-tetrahydropyrimidine-5-carboxylic acid, reference compound]
IC50 ([1]; read-out: IC50 GAT3 wt): 851 µM
IC50 [1, 5]: 589 µM
IC50 ([2]; IC50 BGT1 E52Y): 5.8 µM
IC50 [3]: > 1000 µM
IC50 ([4]; IC50 BGT1 E52A): 4.4 µM

NC1=NCC(C(=O)O)CC1 (stereo not shown) [compound 2, 6-amino-2,3,4,5-tetrahydropyridine-3-carboxylic acid, reference compound]
IC50 ([1]; read-out: IC50 GAT3 wt): > 1000 µM
IC50 ([2]; IC50 BGT1 E52Y): 44 µM
IC50 ([2]; pIC50 ± S.E.M. BGT1 E52Y): 37.2 µM
IC50 [3]: 216 µM
IC50 ([4]; IC50 BGT1 E52A): 31 µM
IC50 ([4]; pIC50 ± S.E.M. BGT1 E52A): 30.2 µM

CCN1CC(C(=O)O)CN=C1N.Cl (stereo not shown) [compound 3]
IC50 ([1]; read-out: IC50 GAT3 wt): > 1000 µM
IC50 ([2]; IC50 BGT1 E52Y): 152 µM
IC50 [3]: > 1000 µM
IC50 ([4]; IC50 BGT1 E52A): 74 µM
IC50 ([4]; pIC50 ± S.E.M. BGT1 E52A): 72.4 µM

Cl.NC1=NCC(C(=O)O)CN1Cc1ccccc1 (stereo not shown) [compound 4]
IC50 ([1]; read-out: IC50 GAT3 wt): 122 µM
IC50 [1, 5]: 115 µM
IC50 ([2]; IC50 BGT1 E52Y): 54 µM
IC50 [3]: > 1000 µM
IC50 ([4]; IC50 BGT1 E52A): 90 µM
IC50 ([4]; pIC50 ± S.E.M. BGT1 E52A): 87.1 µM

NC1=NC=C(C(=O)O)CN1.O=C(O)C(F)(F)F [compound 11]
IC50 ([1]; read-out: IC50 GAT3 wt): > 1000 µM
IC50 ([2]; IC50 BGT1 E52Y): > 1000 µM
IC50 [3]: > 1000 µM
IC50 ([4]; IC50 BGT1 E52A): 247 µM
IC50 ([4]; pIC50 ± S.E.M. BGT1 E52A): 240 µM

From publication PMC7400577 (Scientific Reports, 2020)
